# Test results taken from ChEMBL document CHEMBL5715954, “Silencing c-Myc translation as a therapeutic strategy through targeting PI3Kδ and CK1ε in hematological malignancies” (Blood, 2017).
# Columns and labels:
# Parameters in all cases: scale not given: the % may be the effect or the level left
# [1] = target: Calcium/calmodulin-dependent protein kinase type 1B (Homo sapiens) (UniProt Q6P2M8); assay: Inhibition of human CAMK1b assessed as enzyme activity at 1 uM using KKALRRQETVDAL as substrate preincubated for 20 mins followed by [gamma-33P]-ATP addition and measured after 120 mins by radiometric Hot-SpotSM Kinase assay relative to control
# Chain of Calcium/calmodulin-dependent protein kinase type 1B (Homo sapiens) (Q6P2M8 whole entry): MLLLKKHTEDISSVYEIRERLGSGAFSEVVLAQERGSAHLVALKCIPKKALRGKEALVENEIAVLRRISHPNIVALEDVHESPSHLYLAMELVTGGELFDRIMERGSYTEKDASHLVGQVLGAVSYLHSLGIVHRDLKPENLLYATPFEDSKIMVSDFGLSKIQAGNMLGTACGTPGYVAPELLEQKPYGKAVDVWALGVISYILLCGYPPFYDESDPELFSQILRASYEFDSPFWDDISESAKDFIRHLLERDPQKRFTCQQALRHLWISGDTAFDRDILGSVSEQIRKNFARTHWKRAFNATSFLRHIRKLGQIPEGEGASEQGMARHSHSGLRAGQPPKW
# [2] = target: Dual specificity tyrosine-phosphorylation-regulated kinase 1B (Homo sapiens) (UniProt Q9Y463); assay: Inhibition of human DYRK1B assessed as enzyme activity at 1 uM using RRRFRPASPLRGPPK as substrate preincubated for 20 mins followed by [gamma-33P]-ATP addition and measured after 120 mins by radiometric Hot-SpotSM Kinase assay relative to control
# Chain of Dual specificity tyrosine-phosphorylation-regulated kinase 1B (Homo sapiens) (Q9Y463 whole entry, looked up): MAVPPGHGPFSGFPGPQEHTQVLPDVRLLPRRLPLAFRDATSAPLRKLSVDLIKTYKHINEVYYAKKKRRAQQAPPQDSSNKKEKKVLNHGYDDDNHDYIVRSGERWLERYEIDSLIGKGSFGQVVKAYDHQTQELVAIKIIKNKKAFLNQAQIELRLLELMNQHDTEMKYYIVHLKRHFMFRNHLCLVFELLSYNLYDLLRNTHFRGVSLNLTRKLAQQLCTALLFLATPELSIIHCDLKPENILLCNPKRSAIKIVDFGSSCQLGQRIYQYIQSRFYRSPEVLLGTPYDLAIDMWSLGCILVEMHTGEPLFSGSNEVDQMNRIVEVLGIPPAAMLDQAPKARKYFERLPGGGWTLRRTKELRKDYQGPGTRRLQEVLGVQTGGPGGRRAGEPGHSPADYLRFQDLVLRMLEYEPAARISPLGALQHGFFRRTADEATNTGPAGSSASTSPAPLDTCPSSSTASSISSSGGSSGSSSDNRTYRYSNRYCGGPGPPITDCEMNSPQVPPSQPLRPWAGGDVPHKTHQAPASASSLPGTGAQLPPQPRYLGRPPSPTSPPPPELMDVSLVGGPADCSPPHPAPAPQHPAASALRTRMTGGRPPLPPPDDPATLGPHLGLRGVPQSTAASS
# [3] = target: T1, Mitogen-activated protein kinase kinase kinase kinase 3 (Homo sapiens) (UniProt Q8IVH8); assay: Inhibition of human GLK/MAP4K3 assessed as enzyme activity at 1 uM using myelin basic protein as substrate preincubated for 20 mins followed by [gamma-33P]-ATP addition and measured after 120 mins by radiometric Hot-SpotSM Kinase assay relative to control
# T1 sequence (whole entry): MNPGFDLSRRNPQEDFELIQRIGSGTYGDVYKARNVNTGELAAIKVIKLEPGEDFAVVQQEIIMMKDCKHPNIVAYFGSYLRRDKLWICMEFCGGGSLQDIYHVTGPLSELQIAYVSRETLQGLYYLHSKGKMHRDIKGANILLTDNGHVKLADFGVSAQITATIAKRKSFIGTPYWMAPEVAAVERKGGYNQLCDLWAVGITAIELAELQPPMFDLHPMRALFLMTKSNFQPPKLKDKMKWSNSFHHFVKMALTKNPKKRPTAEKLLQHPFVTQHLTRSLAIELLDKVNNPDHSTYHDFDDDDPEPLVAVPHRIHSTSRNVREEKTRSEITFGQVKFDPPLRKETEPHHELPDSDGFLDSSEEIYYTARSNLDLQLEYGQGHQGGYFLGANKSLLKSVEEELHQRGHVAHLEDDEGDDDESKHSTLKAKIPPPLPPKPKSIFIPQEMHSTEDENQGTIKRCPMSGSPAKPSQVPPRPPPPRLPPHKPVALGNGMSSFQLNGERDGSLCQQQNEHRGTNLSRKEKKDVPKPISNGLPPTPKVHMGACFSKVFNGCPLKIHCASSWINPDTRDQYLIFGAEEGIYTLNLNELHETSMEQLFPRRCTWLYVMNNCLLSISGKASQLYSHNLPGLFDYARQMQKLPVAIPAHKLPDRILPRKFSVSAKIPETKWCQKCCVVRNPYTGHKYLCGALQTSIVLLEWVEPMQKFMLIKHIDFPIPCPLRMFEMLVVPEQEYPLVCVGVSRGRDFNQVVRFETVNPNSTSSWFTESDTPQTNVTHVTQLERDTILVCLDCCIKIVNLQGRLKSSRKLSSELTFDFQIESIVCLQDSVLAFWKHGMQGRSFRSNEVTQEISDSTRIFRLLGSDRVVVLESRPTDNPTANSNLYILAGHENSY
# [4] = target: Glycogen synthase kinase-3 alpha (Homo sapiens) (UniProt P49840); assay: Inhibition of human GSK3a assessed as enzyme activity at 1 uM using YRRAAVPPSPSLSRHSSPHQ(pS)EDEEE as substrate preincubated for 20 mins followed by [gamma-33P]-ATP addition and measured after 120 mins by radiometric Hot-SpotSM Kinase assay relative to control
# Chain of Glycogen synthase kinase-3 alpha (Homo sapiens) (P49840 2-483 limits assumed): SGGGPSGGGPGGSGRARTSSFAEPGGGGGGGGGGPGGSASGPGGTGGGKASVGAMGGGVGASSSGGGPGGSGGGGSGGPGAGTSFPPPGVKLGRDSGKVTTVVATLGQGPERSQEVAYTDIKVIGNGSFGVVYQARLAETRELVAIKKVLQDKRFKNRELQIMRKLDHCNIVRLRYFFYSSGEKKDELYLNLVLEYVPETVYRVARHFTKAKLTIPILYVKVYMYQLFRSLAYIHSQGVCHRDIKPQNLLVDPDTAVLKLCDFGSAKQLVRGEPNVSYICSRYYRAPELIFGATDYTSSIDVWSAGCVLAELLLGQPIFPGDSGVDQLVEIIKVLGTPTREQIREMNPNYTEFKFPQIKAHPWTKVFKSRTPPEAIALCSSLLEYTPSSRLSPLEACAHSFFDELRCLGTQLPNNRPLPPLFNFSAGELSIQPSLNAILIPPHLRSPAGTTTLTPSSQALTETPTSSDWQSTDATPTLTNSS
# [5] = target: Homeodomain-interacting protein kinase 2 (Homo sapiens) (UniProt Q9H2X6); assay: Inhibition of human HIPK2 assessed as enzyme activity at 1 uM using myelin basic protein as substrate preincubated for 20 mins followed by [gamma-33P]-ATP addition and measured after 120 mins by radiometric Hot-SpotSM Kinase assay relative to control
# [6] = target: MAP kinase-activated protein kinase 2 (Homo sapiens) (UniProt P49137); assay: Inhibition of human MAPKAPK2 assessed as enzyme activity at 1 uM using KKLNRTLSVA as substrate preincubated for 20 mins followed by [gamma-33P]-ATP addition and measured after 120 mins by radiometric Hot-SpotSM Kinase assay relative to control
# Chain of MAP kinase-activated protein kinase 2 (Homo sapiens) (P49137 whole entry, looked up): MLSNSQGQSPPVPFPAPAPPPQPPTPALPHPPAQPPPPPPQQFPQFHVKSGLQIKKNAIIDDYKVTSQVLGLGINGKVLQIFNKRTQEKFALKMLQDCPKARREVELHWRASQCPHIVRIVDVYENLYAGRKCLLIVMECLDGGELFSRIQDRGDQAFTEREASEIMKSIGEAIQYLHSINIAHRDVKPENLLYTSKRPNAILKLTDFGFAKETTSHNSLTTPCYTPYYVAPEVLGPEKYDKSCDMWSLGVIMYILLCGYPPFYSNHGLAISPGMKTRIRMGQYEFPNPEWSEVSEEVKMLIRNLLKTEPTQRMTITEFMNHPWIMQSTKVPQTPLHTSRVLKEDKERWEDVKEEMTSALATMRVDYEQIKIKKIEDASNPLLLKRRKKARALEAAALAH
# [7] = target: Maternal embryonic leucine zipper kinase (Homo sapiens) (UniProt Q14680); assay: Inhibition of human MELK assessed as enzyme activity at 1 uM using KKLNRTLSFAEPG as substrate preincubated for 20 mins followed by [gamma-33P]-ATP addition and measured after 120 mins by radiometric Hot-SpotSM Kinase assay relative to control
# Chain of Maternal embryonic leucine zipper kinase (Homo sapiens) (Q14680 whole entry, looked up): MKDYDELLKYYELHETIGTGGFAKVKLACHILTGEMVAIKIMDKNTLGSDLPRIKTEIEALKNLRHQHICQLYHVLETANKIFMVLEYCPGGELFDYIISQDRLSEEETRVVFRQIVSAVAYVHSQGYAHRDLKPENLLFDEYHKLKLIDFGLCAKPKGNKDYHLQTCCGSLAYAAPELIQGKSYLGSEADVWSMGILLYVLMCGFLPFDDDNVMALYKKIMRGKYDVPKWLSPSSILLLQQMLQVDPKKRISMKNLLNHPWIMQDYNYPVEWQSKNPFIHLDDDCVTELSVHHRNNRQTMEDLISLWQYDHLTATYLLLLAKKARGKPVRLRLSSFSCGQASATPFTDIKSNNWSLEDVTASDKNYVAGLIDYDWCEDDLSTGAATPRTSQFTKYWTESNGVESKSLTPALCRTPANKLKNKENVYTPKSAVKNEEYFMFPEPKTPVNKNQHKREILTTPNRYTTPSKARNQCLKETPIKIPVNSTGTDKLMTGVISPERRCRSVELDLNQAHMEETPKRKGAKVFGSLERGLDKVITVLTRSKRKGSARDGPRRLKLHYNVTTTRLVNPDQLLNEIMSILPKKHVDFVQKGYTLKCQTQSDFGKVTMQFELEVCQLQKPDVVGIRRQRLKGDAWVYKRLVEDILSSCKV
# [8] = target: MAP kinase-interacting serine/threonine-protein kinase 2 (Homo sapiens) (UniProt Q9HBH9); assay: Inhibition of human MNK2 assessed as enzyme activity at 1 uM using myelin basic protein as substrate preincubated for 20 mins followed by [gamma-33P]-ATP addition and measured after 120 mins by radiometric Hot-SpotSM Kinase assay relative to control
# Chain of MAP kinase-interacting serine/threonine-protein kinase 2 (Homo sapiens) (Q9HBH9 whole entry, looked up): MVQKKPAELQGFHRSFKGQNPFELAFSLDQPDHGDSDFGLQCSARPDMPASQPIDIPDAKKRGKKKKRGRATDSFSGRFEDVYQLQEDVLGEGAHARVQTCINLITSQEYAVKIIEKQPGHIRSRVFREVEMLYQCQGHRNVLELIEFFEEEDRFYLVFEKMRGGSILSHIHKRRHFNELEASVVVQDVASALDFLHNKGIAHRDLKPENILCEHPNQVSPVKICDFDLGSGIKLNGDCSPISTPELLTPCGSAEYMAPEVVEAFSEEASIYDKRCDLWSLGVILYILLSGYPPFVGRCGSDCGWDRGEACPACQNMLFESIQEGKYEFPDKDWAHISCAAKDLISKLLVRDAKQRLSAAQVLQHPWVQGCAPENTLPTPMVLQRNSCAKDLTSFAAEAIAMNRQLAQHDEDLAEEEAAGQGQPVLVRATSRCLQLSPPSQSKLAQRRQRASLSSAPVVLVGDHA
# [9] = target: Serine/threonine-protein kinase PAK 3 (Homo sapiens) (UniProt O75914); assay: Inhibition of human PAK3 assessed as enzyme activity at 1 uM using RRRLSFAEPG as substrate preincubated for 20 mins followed by [gamma-33P]-ATP addition and measured after 120 mins by radiometric Hot-SpotSM Kinase assay relative to control
# Chain of Serine/threonine-protein kinase PAK 3 (Homo sapiens) (O75914 whole entry, looked up): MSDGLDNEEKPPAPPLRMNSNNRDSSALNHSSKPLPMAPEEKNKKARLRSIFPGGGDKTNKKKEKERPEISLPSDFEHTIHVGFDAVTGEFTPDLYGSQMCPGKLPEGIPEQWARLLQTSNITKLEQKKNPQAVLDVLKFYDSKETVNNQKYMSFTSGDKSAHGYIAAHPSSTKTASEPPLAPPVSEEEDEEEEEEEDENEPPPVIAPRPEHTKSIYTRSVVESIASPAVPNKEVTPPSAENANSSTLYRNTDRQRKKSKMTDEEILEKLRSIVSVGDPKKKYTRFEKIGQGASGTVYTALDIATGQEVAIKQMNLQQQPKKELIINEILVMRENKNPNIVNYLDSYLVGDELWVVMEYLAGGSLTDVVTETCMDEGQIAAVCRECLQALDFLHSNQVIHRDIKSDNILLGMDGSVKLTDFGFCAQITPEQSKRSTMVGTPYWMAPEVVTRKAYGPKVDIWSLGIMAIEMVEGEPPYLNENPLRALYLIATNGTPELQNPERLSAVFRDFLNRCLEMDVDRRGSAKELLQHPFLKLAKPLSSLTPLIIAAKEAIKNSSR
# [10] = target: Serine/threonine-protein kinase SIK1 (Homo sapiens) (UniProt P57059); assay: Inhibition of human SIK1 assessed as enzyme activity at 1 uM using AMARAASAAALARRR as substrate preincubated for 20 mins followed by [gamma-33P]-ATP addition and measured after 120 mins by radiometric Hot-SpotSM Kinase assay relative to control
# Chain of Serine/threonine-protein kinase SIK1 (Homo sapiens) (P57059 whole entry): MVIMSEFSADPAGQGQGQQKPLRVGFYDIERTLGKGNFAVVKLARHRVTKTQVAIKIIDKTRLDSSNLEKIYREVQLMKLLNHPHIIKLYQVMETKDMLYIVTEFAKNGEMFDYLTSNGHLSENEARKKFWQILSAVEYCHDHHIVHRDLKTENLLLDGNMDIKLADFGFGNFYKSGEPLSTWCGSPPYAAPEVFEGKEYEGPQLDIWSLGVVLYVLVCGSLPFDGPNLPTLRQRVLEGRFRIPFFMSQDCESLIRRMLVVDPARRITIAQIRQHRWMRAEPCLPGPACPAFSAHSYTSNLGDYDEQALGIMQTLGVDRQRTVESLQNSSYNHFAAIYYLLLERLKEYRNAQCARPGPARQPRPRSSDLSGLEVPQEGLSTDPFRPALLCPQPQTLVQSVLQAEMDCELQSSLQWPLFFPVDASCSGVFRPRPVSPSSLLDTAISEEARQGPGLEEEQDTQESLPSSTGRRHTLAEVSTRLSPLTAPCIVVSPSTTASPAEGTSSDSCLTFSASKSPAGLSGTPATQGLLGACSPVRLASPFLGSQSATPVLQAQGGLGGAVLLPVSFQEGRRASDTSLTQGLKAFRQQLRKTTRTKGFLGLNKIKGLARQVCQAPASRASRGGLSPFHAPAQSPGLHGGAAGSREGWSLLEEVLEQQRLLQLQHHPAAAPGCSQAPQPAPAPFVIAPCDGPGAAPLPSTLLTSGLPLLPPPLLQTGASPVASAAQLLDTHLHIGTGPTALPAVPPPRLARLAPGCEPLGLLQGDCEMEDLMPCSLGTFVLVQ
# [11] = target: SRSF protein kinase 2 (Homo sapiens) (UniProt P78362); assay: Inhibition of human SRPK2 assessed as enzyme activity at 1 uM using GRSRSRSRSR as substrate preincubated for 20 mins followed by [gamma-33P]-ATP addition and measured after 120 mins by radiometric Hot-SpotSM Kinase assay relative to control
# Chain of SRSF protein kinase 2 (Homo sapiens) (P78362 whole entry, looked up): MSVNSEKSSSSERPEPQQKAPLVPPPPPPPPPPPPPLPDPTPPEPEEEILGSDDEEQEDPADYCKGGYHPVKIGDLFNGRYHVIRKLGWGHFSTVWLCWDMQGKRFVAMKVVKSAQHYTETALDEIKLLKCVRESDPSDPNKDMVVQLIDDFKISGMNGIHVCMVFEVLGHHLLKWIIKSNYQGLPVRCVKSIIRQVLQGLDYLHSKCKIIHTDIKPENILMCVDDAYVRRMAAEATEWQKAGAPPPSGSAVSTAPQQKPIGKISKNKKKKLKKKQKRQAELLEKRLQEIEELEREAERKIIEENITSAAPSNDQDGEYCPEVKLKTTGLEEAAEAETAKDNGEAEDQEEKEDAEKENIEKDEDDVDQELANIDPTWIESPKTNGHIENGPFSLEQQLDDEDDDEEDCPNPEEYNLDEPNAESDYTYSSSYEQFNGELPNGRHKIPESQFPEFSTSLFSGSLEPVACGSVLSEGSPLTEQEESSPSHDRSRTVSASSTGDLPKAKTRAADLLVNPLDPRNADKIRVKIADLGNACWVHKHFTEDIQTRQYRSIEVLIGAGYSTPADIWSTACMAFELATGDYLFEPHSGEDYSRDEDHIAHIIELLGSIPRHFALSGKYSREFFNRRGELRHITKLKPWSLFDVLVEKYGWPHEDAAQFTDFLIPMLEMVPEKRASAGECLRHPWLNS
# [12] = target: T2, Testis-specific serine/threonine-protein kinase 3 (Homo sapiens) (UniProt Q96PN8); assay: Inhibition of human TSSK3 assessed as enzyme activity at 1 uM using KKKVSRSGLYRSPSMPENLNRPR as substrate preincubated for 20 mins followed by [gamma-33P]-ATP addition and measured after 120 mins by radiometric Hot-SpotSM Kinase assay relative to control
# T2 sequence (whole entry): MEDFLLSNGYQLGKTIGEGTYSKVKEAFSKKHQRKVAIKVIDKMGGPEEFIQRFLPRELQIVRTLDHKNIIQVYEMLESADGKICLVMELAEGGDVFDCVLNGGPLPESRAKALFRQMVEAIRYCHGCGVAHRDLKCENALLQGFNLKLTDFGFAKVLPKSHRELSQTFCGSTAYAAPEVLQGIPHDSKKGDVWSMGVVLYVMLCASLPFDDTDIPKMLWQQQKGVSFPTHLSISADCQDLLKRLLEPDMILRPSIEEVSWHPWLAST
SMILES,Activity [1] [%],Activity [2] [%],Activity [3] [%],Activity [4] [%],Activity [5] [%],Activity [6] [%],Activity [7] [%],Activity [8] [%],Activity [9] [%],Activity [10] [%],Activity [11] [%],Activity [12] [%]
C[C@H](Nc1ncnc2nc[nH]c12)c1cc2cccc(Cl)c2c(=O)n1-c1ccccc1,102,99.8,98.3,95.3,100,96.5,94.5,99.9,95.5,95.7,92.3,109
CC[C@H](Nc1ncnc2[nH]cnc12)c1nc2cccc(F)c2c(=O)n1-c1ccccc1,103,99.2,95.2,93.7,100,96.2,93.6,105,94.5,95.5,91.3,102
CC(C)Oc1ccc(-c2nn([C@@H](C)c3oc4ccc(F)cc4c(=O)c3-c3cccc(F)c3)c3ncnc(N)c23)cc1F [UMBRALISIB],100,96.2,99.3,104,107,91.4,105,102,96.5,98.2,86,107
